Test results: patent US20080233151A1, “Use of non-antibacterial tetracycline analogs and formulations thereof for the treatment of bacterial exotoxins” (priority 2002, published 2008)

System: bacteria
Assay: Non-antimicrobial dose and plasma antimicrobial threshold of antibacterial tetracyclines
Experimental: For example, tetracycline compounds that have significant antibacterial activity may be administered in an amount which is 10-80% of the antibacterial amount. More preferably, the antibacterial tetracycline compound is administered in an amount which is 40-70% of the antibacterial amount.
Examples of antibacterial tetracyclines administered in a non-antibacterial amount are depicted in Table 1, as follows: […]

Structure (SMILES)	Plasma Antimicrobial Threshold Level	Maximum Non-Antimicrobial Dose (twice daily)	Maximum Non-Antimicrobial Dose (once daily)
C[C@H]1c2cccc(O)c2C(=O)C2=C(O)[C@]3(O)C(=O)C(C(N)=O)=C(O)[C@@H](N(C)C)[C@@H]3[C@@H](O)[C@@H]21 [Doxycycline]	1.0 µg/mL	20 mg b.i.d	
CN(C)c1ccc(O)c2c1C[C@H]1C[C@H]3[C@H](N(C)C)C(O)=C(C(N)=O)C(=O)[C@@]3(O)C(O)=C1C2=O [Minocycline]	0.8 µg/mL		38 mg q.d.
CN(C)[C@@H]1C(O)=C(C(N)=O)C(=O)[C@@]2(O)C(O)=C3C(=O)c4c(O)cccc4[C@@](C)(O)[C@H]3C[C@@H]12 [Tetracycline]	0.5 µg/mL		60 mg q.d.
